Source: BindingDB's records for doi:10.1016/s1074-5521(98)90168-5 (University of California San Francisco, 1998)
pKd: −log10 of the molar value.

Assays:
[1] = target: T1, Thyroid hormone receptor alpha (Homo sapiens, UniProt P10827); experiment: TR Receptor Ligand Binding Assay
T1 sequence (P10827 whole entry): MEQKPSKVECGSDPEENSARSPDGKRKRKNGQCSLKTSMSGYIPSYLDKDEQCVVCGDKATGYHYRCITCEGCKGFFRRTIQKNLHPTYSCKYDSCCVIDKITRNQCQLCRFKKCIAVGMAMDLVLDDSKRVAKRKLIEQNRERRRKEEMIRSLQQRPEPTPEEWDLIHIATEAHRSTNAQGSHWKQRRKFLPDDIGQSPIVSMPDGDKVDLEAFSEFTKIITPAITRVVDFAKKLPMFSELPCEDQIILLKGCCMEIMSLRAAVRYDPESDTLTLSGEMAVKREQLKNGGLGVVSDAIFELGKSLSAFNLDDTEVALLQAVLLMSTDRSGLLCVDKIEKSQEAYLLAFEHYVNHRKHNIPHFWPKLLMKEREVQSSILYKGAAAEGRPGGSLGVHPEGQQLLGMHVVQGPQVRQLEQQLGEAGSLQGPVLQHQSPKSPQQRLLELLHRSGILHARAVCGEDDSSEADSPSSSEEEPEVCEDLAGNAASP
From the text: (§1) Human thyroid hormone receptor alpha and beta (hTR alpha1) and (hTR beta1) were produced using TNT coupled reticulocyte lysate system from Promega.

[2] = target: T2, Thyroid hormone receptor beta (Homo sapiens, UniProt P10828); experiment: TR Receptor Ligand Binding Assay
T2 sequence (P10828 whole entry): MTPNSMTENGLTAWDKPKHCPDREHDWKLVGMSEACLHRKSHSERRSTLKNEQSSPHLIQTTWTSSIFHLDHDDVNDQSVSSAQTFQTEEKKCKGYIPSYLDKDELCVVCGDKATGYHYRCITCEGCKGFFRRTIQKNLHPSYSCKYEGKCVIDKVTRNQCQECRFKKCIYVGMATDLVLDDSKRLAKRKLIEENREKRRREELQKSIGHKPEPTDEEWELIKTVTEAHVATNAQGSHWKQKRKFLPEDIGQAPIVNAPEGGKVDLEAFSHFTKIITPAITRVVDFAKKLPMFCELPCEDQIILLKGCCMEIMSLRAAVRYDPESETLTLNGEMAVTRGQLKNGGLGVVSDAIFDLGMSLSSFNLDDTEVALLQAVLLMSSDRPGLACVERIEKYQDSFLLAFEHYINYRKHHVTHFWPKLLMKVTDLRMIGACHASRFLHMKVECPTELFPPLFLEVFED
From the text: as §1

pKd [1]: 8.01
pKd [2]: 8.01
SMILES: Cc1cc(C[C@H](N)C(=O)O)cc(C)c1Oc1ccc(O)c(C(C)C)c1 [Dimethyl-isopropyl-T3 (DIMIT)]
